For data set [1], the system named is Escherichia coli. The experiment in a line: Antimicrobial activity against Escherichia coli ATCC 25922 after 24 hrs by broth microdilution method. The class given is functional. Particulars: ATCC 25922, 24 h.
For data set [2], the system named is Staphylococcus aureus. The data set can be described thus: Antimicrobial activity against Staphylococcus aureus ATCC 29213 after 24 hrs by broth microdilution method. Format: functional. To be noted: ATCC 29213, 24 h. A general note: Dilution methods test growth across graded concentrations, often in twofold steps.
Data set [3] relates to Mycobacterium tuberculosis. The data set can be described thus: Antimicrobial activity against Mycobacterium tuberculosis H37Rv ATCC 27294 after 3 weeks by microbroth dilution method. The class given is functional. To be noted: H37Rv ATCC 27294, 504 h.
Data set [4] in a line: Selectivity index, ratio of IC50 for mouse RAW264.7 cells to MIC for Mycobacterium tuberculosis H37Rv ATCC 27294. Format: toxicity. Particulars: read-out: Selectivity Index.
The test system of the next data set is RAW264.7. The data set can be described thus: Cytotoxicity against mouse RAW264.7 cells after 72 hrs by MTT assay. Format: cell-based. Particulars: RAW264.7, 72 h. Background: Formazan colour is commonly taken as a measure of viable cells.
A short description of data set [5]: Cytotoxicity against mouse RAW264.7 cells at 50 uM after 72 hrs by MTT assay. Format: cell-based. Particulars: read-out: INH.
The nature of data set [6]: Inhibition of DNA gyrase (unknown origin) using relaxed pBR322 as substrate after 30 mins by agarose gel electrophoresis.
The test system of data set [7] is Staphylococcus aureus. The experiment in a line: Bactericidal activity against Staphylococcus aureus ATCC 29213 assessed as 3 log reduction in inoculum size after 24 hrs by broth microdilution method relative to control. Format: functional. To be noted: ATCC 29213, 24 h.
The subject of data set [8] is Escherichia coli. The experiment in a line: Bactericidal activity against Escherichia coli ATCC 25922 assessed as 3 log reduction in inoculum size after 24 hrs by broth microdilution method relative to control. Particulars: ATCC 25922, 24 h. The class given is functional.

In brackets after ≈: the same amount, converted by molar mass.

A word on the MIC99: it is the lowest concentration that inhibits either 99% of growth or 99% of the strains tested, depending on the study. Higher therefore signals weaker potency. `O=C(O)c1cn(C2CC2)c2cc(N3CCN(C(=O)CN4CCN(C(c5ccc(F)cc5)c5ccc(F)cc5)CC4)CC3)c(F)cc2c1=O`: the MIC99 in the data set with Escherichia coli [1] was above 24.3 µM; against Staphylococcus aureus [2], 1.51 µM (≈ 0.996 µg/mL); in [3], above 97.2 µM.

Take `O=C(O)c1cn(C2CC2)c2cc(N3CCN(C(=O)CN4CCN(c5ccc(F)c(F)c5)CC4)CC3)c(F)cc2c1=O`: the MIC99 with Escherichia coli [1] was above 225 µM; in the data set with Staphylococcus aureus [2], above 225 µM; in data set [3] it was above 113 µM.

As usually defined, the IC50 is the concentration at which inhibition is half-maximal. A high value points to a need for much substance. For `O=C(O)c1cn(C2CC2)c2cc(N3CCN(C(=O)CN4CCN(C(c5ccccc5)c5ccccc5)CC4)CC3)c(F)cc2c1=O`, in data set [4], the selectivity ratio stood at 3.75. The same compound displayed an IC50 in the data set with RAW264.7 of 96.6 µM. In addition, the cytotoxicity at 72 h, 50 µM in data set [5] amounted to 25.9%. For the same compound, the MIC99 in the data set with Escherichia coli [1] worked out at 12.8 µM (≈ 8.01 µg/mL); with Staphylococcus aureus [2], 0.8 µM (≈ 0.499 µg/mL); in [3] it was 25.7 µM (≈ 16 µg/mL).

Take `N#Cc1ccccc1N1CCN(CC(=O)N2CCN(c3cc4c(cc3F)c(=O)c(C(=O)O)cn4C3CC3)CC2)CC1`: the values for the MIC99 (against Escherichia coli [1]; against Staphylococcus aureus [2]; in [3]) were 3.58 µM (≈ 2 µg/mL), 0.89 µM (≈ 0.497 µg/mL) and above 115 µM, respectively.

In the case of `O=C(O)c1cn(C2CC2)c2cc(N3CCN(C(=O)CN4CCN(c5ccccn5)CC4)CC3)c(F)cc2c1=O`, the MIC99 against Escherichia coli [1] was 3.75 µM (≈ 2 µg/mL); against Staphylococcus aureus [2], 1.87 µM (≈ 1 µg/mL); in data set [3] it was above 120 µM.

As for `O=C(O)c1cn(C2CC2)c2cc(N3CCN(C(=O)CN4CCN(c5ncccn5)CC4)CC3)c(F)cc2c1=O`, the selectivity ratio in data set [4] was 3.79. Besides, the concentration for half-maximal inhibition (IC50) in the data set on RAW264.7 came to 227 µM. In data set [5], the cytotoxicity at 72 h, 50 µM came out at 11%. Further, the figures for the MIC99 (in the data set on Escherichia coli [1]; with Staphylococcus aureus [2]; in [3]) were 3.74 µM (≈ 2 µg/mL), 1.87 µM (≈ 1 µg/mL) and 59.9 µM (≈ 32.1 µg/mL), respectively.

Turning to `COc1ccc(N2CCN(CC(=O)N3CCN(c4cc5c(cc4F)c(=O)c(C(=O)O)cn5C4CC4)CC3)CC2)cc1OC`, the MIC99 against Escherichia coli [1] is 6.75 µM (≈ 4.01 µg/mL); against Staphylococcus aureus [2], 1.68 µM (≈ 0.997 µg/mL); in data set [3], above 108 µM.

For the compound `O=C(O)c1cn(C2CC2)c2cc(N3CCN(C(=O)CN4CCN(c5cccc(O)c5)CC4)CC3)c(F)cc2c1=O`, the MIC99 in the data set on Escherichia coli [1] was 3.64 µM (≈ 2 µg/mL); with Staphylococcus aureus [2], 1.82 µM (≈ 1 µg/mL); in data set [3], above 117 µM.

Turning to `CN(C)CCN1CCN(CC(=O)N2CCN(c3cc4c(cc3F)c(=O)c(C(=O)O)cn4C3CC3)CC2)CC1`, the MIC99 in the data set on Escherichia coli [1] stood at 7.58 µM (≈ 4.01 µg/mL); against Staphylococcus aureus [2] it was 7.58 µM (≈ 4.01 µg/mL); in [3], 121 µM (≈ 64.2 µg/mL).

On to `O=C(O)c1cn(C2CC2)c2cc(N3CCN(C(=O)CN4CCN(c5cccc(C(F)(F)F)c5)CC4)CC3)c(F)cc2c1=O`, for which the MIC99 against Escherichia coli [1] was 6.66 µM (≈ 4.01 µg/mL); with Staphylococcus aureus [2] it was 0.83 µM (≈ 0.499 µg/mL); in data set [3] it was above 107 µM.

With `CC(=O)N1CCN(CC(=O)N2CCN(c3cc4c(cc3F)c(=O)c(C(=O)O)cn4C3CC3)CC2)CC1`, the selectivity ratio in data set [4] came to 9.59. In the data set on RAW264.7, the half-inhibitory concentration (IC50) came to 154 µM. In addition, the cytotoxicity at 72 h, 50 µM in data set [5] stood at 16.2%. The figures for the MIC99 (in the data set on Escherichia coli [1]; with Staphylococcus aureus [2]; in data set [3]) were 16.1 µM (≈ 8.02 µg/mL), 4.01 µM (≈ 2 µg/mL) and 16.1 µM (≈ 8.02 µg/mL), respectively.

`O=C(O)c1cn(C2CC2)c2cc(N3CCN(C(=O)CN4CCN(Cc5ccccc5)CC4)CC3)c(F)cc2c1=O`: in data set [4], the selectivity ratio was determined as 22. Also, the IC50 was found to be 161 µM with RAW264.7 and 7 µM in data set [6]. Also, in data set [5], the cytotoxicity at 72 h, 50 µM came to 15.5%. The MIC99 came to 1.83 µM (≈ 1 µg/mL) in the data set with Escherichia coli [1], 1.83 µM (≈ 1 µg/mL) in the data set on Staphylococcus aureus [2] and 7.32 µM (≈ 4.01 µg/mL) in data set [3].

As a reminder, the MBC is the lowest tested concentration that kills the bacteria rather than only halting them. As for `O=C(O)c1cn(C2CC2)c2cc(N3CCN(C(=O)CN4CCN(c5ccccc5)CC4)CC3)c(F)cc2c1=O`, the MBC in the data set on Staphylococcus aureus [7] and with Escherichia coli [8] was 7.51 µM (≈ 4.01 µg/mL) in each case. The MIC99 against Escherichia coli [1] is 1.87 µM (≈ 0.998 µg/mL); with Staphylococcus aureus [2], 0.93 µM (≈ 0.496 µg/mL); in data set [3] it was above 120 µM.

As to `O=C(O)c1cn(C2CC2)c2cc(N3CCN(C(=O)CN4CCN(c5ccccc5Cl)CC4)CC3)c(F)cc2c1=O`, the selectivity ratio in data set [4] came out at 5.92. This compound also showed a half-maximal inhibitory concentration (IC50) in the data set with RAW264.7 of 167 µM. The cytotoxicity at 72 h, 50 µM in data set [5] was 14.9%. The minimum bactericidal concentration (MBC) was 0.88 µM (≈ 0.5 µg/mL) with Staphylococcus aureus [7] and 7.06 µM (≈ 4.01 µg/mL) in the data set on Escherichia coli [8]. Besides, the MIC99 with Escherichia coli [1] is 0.88 µM (≈ 0.5 µg/mL); against Staphylococcus aureus [2], 0.44 µM (≈ 0.25 µg/mL); in [3], 28.2 µM (≈ 16 µg/mL).

As to `N#Cc1ccc(N2CCN(CC(=O)N3CCN(c4cc5c(cc4F)c(=O)c(C(=O)O)cn5C4CC4)CC3)CC2)cc1`, the values for the MIC99 (against Escherichia coli [1]; in the data set with Staphylococcus aureus [2]; in data set [3]) were 7.17 µM (≈ 4.01 µg/mL), 7.17 µM (≈ 4.01 µg/mL) and above 115 µM, respectively.

For the compound `O=C(O)c1cn(C2CC2)c2cc(N3CCN(C(=O)CN4CCN(c5ccc([N+](=O)[O-])cc5)CC4)CC3)c(F)cc2c1=O`, the MIC99 against Escherichia coli [1] is 13.8 µM (≈ 8.01 µg/mL); in the data set on Staphylococcus aureus [2], 6.92 µM (≈ 4 µg/mL); in [3], above 111 µM.

On to `COc1cccc(N2CCN(CC(=O)N3CCN(c4cc5c(cc4F)c(=O)c(C(=O)O)cn5C4CC4)CC3)CC2)c1`, for which the MIC99 against Escherichia coli [1] is 3.55 µM (≈ 2 µg/mL); against Staphylococcus aureus [2], 0.88 µM (≈ 0.496 µg/mL); in [3], above 114 µM.

Turning to `Cc1cccc(N2CCN(CC(=O)N3CCN(c4cc5c(cc4F)c(=O)c(C(=O)O)cn5C4CC4)CC3)CC2)c1`, the selectivity ratio in [4] was found to be 5.26. Moreover, half-maximal inhibition in the data set with RAW264.7 (IC50) was put at 154 µM. Further, the cytotoxicity at 72 h, 50 µM in data set [5] turned out to be 16.2%. For the same compound, the MIC99 is 7.32 µM (≈ 4.01 µg/mL) against Escherichia coli [1], 1.83 µM (≈ 1 µg/mL) in the data set on Staphylococcus aureus [2] and 29.3 µM (≈ 16 µg/mL) in data set [3].

Turning to `CC(c1ccccc1)N1CCN(CC(=O)N2CCN(c3cc4c(cc3F)c(=O)c(C(=O)O)cn4C3CC3)CC2)CC1` (stereo not drawn), the selectivity ratio in data set [4] amounted to 5.17. The compound further came in with an IC50 in the data set with RAW264.7 of 148 µM. Further, the cytotoxicity at 72 h, 50 µM in [5] is 16.9%. In addition, the MIC99 with Escherichia coli [1] came to 3.56 µM (≈ 2 µg/mL); against Staphylococcus aureus [2] it was 1.78 µM (≈ 1 µg/mL); in data set [3], 28.6 µM (≈ 16 µg/mL).

In the case of `CCN1CCN(CC(=O)N2CCN(c3cc4c(cc3F)c(=O)c(C(=O)O)cn4C3CC3)CC2)CC1`, the selectivity ratio in data set [4] was 5.68. In the data set on RAW264.7, the IC50 was 188 µM. Also, the cytotoxicity at 72 h, 50 µM in data set [5] is 13.3%. The MIC99 was 16.5 µM (≈ 8.02 µg/mL) against Escherichia coli [1], 16.5 µM (≈ 8.02 µg/mL) against Staphylococcus aureus [2] and 33 µM (≈ 16 µg/mL) in data set [3].

Take `CN1CCN(CC(=O)N2CCN(c3cc4c(cc3F)c(=O)c(C(=O)O)cn4C3CC3)CC2)CC1`: the MIC99 came to 34 µM (≈ 16 µg/mL) against Escherichia coli [1], 34 µM (≈ 16 µg/mL) with Staphylococcus aureus [2] and 136 µM (≈ 64.2 µg/mL) in data set [3].

As to `O=C(O)c1cn(C2CC2)c2cc(N3CCN(C(=O)CN4CCN(c5ccc(Cl)cc5)CC4)CC3)c(F)cc2c1=O`, the results for the MIC99 (in the data set on Escherichia coli [1]; in the data set with Staphylococcus aureus [2]; in data set [3]) were 7.06 µM (≈ 4.01 µg/mL), 1.76 µM (≈ 1 µg/mL) and 113 µM (≈ 64.2 µg/mL), respectively.

For `O=C(O)c1cn(C2CC2)c2cc(N3CCNCC3)c(F)cc2c1=O` [CIPROFLOXACIN], the MIC99 was determined as 0.021 µM (≈ 0.00696 µg/mL) against Escherichia coli [1] and 0.37 µM (≈ 0.123 µg/mL) in the data set on Staphylococcus aureus [2].

The compound `CO[C@H]1/C=C/O[C@@]2(C)Oc3c(C)c(O)c4c(O)c(c(/C=N/N5CCN(C)CC5)c(O)c4c3C2=O)NC(=O)/C(C)=C\C=C\[C@H](C)[C@H](O)[C@@H](C)[C@@H](O)[C@@H](C)[C@H](OC(C)=O)[C@@H]1C` [RIFAMPIN] returned an MIC99 in data set [3] of 0.14 µM (≈ 0.115 µg/mL).

For the origin of these results see ChEMBL document CHEMBL3098015, “Synthesis and evaluation of 1-cyclopropyl-6-fluoro-1,4-dihydro-4-oxo-7-(4-(2-(4-substitutedpiperazin-1-yl)acetyl)piperazin-1-yl)quinoline-3-carboxylic acid derivatives as anti-tubercular and antibacterial agents” (Eur J Med Chem, 2014).
